Reference: patent US20210284668A1, “GOLD (I)-PHOSPHINE 1,2,3-TRIAZOLE DERIVATIVES WITH ANTIBIOTIC PROPERTIES” (Centre National de la Recherche Scientifique, priority 2018, published 2021)
“And” between values parts separate entries of the source, which are not always exact repeats. Identical values can stand only once.

Legend:
[1] = tested on: S. epidermidis ATCC14990; assay: MIC by microdilution, S. epidermidis ATCC14990; type: cell-based, Staphylococcus epidermidis; settings: S. epidermidis ATCC14990 (MecA negative, wild-type), in duplicate
In short: (§1)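 Broth microdilution per CLSI document M07-A10, Mueller-Hinton medium, each MIC run in duplicate. Strains include E. coli ATCC25922 (wild-type), S. epidermidis ATCC35984 (MecA positive) and S. aureus ATCC700699 (MecA positive, glycopeptide resistant), within a mixed panel of susceptible and resistant Gram-positive/Gram-negative bacteria.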

[2] = tested on: S. aureus ST20131365; assay: MIC by microdilution, S. aureus ST20131365; type: cell-based, Staphylococcus aureus; settings: S. aureus ST20131365 (MecA positive, glycopeptide resistant), in duplicate
In short: as §1

[3] = tested on: E. faecium AUS0004; assay: MIC by microdilution, E. faecium AUS0004; type: cell-based, Enterococcus faecium; settings: E. faecium AUS0004 (VanB positive, glycopeptide resistant), in duplicate
In short: as §1

[4] = tested on: E. faecium BM4147; assay: MIC by microdilution, E. faecium BM4147; type: cell-based, Enterococcus faecium; parameters: unit not given here; settings: E. faecium BM4147 (VanA positive, glycopeptide resistant), in duplicate
In short: as §1

[5] = tested on: E. faecium ATCC19434T; assay: MIC by microdilution, E. faecium ATCC19434T; type: cell-based, Enterococcus faecium; parameters: unit not given here; settings: E. faecium ATCC19434T (wild-type), in duplicate
In short: as §1

[6] = tested on: S. aureus ATCC25923; assay: MIC by microdilution, S. aureus ATCC25923; type: cell-based, Staphylococcus aureus; settings: S. aureus ATCC25923 (MecA negative, wild-type), Mueller-Hinton broth, in duplicate
In short: as §1

[7] = tested on: E. faecalis JH2-2; assay: MIC by microdilution, E. faecalis JH2-2; type: cell-based, Enterococcus faecalis; parameters: unit not given here; settings: E. faecalis JH2-2 (wild-type), in duplicate
In short: as §1

[8] = tested on: Clostridium difficile ATCC700057; assay: MIC by microdilution, Clostridium difficile; type: cell-based; settings: strain ATCC70057 [sic] (Tables 1-2) / ATCC700057 (Tables 3-10), in duplicate
[9] = tested on: S. aureus ATCC29213; assay: MIC by microdilution, S. aureus ATCC29213; type: cell-based, Staphylococcus aureus; settings: S. aureus ATCC29213 (MecA negative, wild-type), Mueller-Hinton broth, in duplicate
Procedure: The antibacterial profile of each derivative was evaluated by the standard microdilution method for susceptibility testing on 16 different strains, following the guidelines of CLSI. The selected panel included: • S. aureus ATCC25923 (MecA negative, wild-type) • S. aureus ATCC29213 (MecA negative, wild-type) • S. aureus ATCC700699 (MecA positive, glycopeptide resistant) • S. aureus ST20131365 (MecA positive, glycopeptide resistant) • S. epidermidis ATCC14990 (MecA negative, wild-type) • S. epidermidis ATCC35984 (MecA positive) • S. epidermidis ST20140436 (MecA positive, glycopeptide resistant) • S. epidermidis ST20150446 (MecA positive, glycopeptide resistant) • E. faecalis JH2-2 (wild-type) • E. faecalis UCN41 (VanA positive, glycopeptide resistant) • E. faecalis V583 (VanB positive, glycopeptide resistant) • E. faecium ATCC19434T (wild-type) • E. faecium BM4147 (VanA positive, glycopeptide resistant) • E. faecium AUS0004 (VanB positive, glycopeptide resistant) • E. coli ATCC25922 (wild-type) • Clostridium difficile ATCC9689 (wild-type)
Both series issued from the SAR study were evaluated for their antibacterial activity on a panel of characterized strains obtained from the French National Reference Centers for Staphylococci (Lyon, Pr. Fréderique Laurent) and for Enterococci (Caen, Pr. Vincent Cattoir), respectively. As shown in the following tables, both series contain very active compounds on multi-resistant Gram-positive bacteria (Minimal Inhibitory Concentrations lower than comparator antibiotic ampicillin). Furthermore, a very important antibacterial effect has been shown too on a strain of Clostridium difficile, a Gram-positive, spore-forming, bacillus responsible for post-antibiotic diarrhoae.
The antibacterial activity of test compounds was evaluated on a selected panel of Gram-positive (4 Staphylococcus aureus, 4 Staphylococcus epidermidis, 3 Enterococcus faecalis, 3 Enterococcus faecium, 1 Clostridium difficile) and Gram-negative strains (1 Escherichia coli, 1 Klebsiella pneumoniae, 1 Pseudomonas aeruginosa, 1 Acinetacter baumannii) with known features of antibiotic resistance (from wild-type susceptibility to multi-drug resistance). The Minimal Inhibitory Concentration (MIC) of test compounds was determined in duplicate by the microdilution method in 96-well microplates with a final volume of 100 μL per well and Mueller-Hinton broth as the growth medium, as recommended by the CLSI (Clinical and Laboratory Standards Institute, document Mo7-A10, USA).

[10] = tested on: E. faecalis UCN41; assay: MIC by microdilution, E. faecalis UCN41; type: cell-based, Enterococcus faecalis; parameters: unit not given here; settings: E. faecalis UCN41 (VanA positive, glycopeptide resistant), in duplicate
In short: as §1

[11] = tested on: S. epidermidis ATCC35984; assay: MIC by microdilution, S. epidermidis ATCC35984; type: cell-based, Staphylococcus epidermidis; settings: S. epidermidis ATCC35984 (MecA positive), in duplicate
In short: as §1

[12] = tested on: S. epidermidis ST20150446; assay: MIC by microdilution, S. epidermidis ST20150446; type: cell-based, Staphylococcus epidermidis; settings: S. epidermidis ST20150446 (MecA positive, glycopeptide resistant), in duplicate
In short: as §1

[13] = tested on: S. aureus ATCC700699; assay: MIC by microdilution, S. aureus ATCC700699; type: cell-based, Staphylococcus aureus; parameters: unit not given here; settings: S. aureus ATCC700699 (MecA positive, glycopeptide resistant), in duplicate
In short: as §1

[14] = tested on: S. epidermidis ST20140436; assay: MIC by microdilution, S. epidermidis ST20140436; type: cell-based, Staphylococcus epidermidis; settings: S. epidermidis ST20140436 (MecA positive, glycopeptide resistant), in duplicate
In short: as §1

[15] = tested on: E. coli ATCC25922; assay: MIC by microdilution, E. coli ATCC25922; type: cell-based, Escherichia coli; settings: E. coli ATCC25922 (wild-type), in duplicate
In short: as §1

[16] = tested on: panel of Gram-positive and Gram-negative strains; assay: Antibacterial profile on the selected panel of strains; type: cell-based; settings: summary of Tables 1-12
In short: as §1

[17] = tested on: E. faecalis V583; assay: MIC by microdilution, E. faecalis V583; type: cell-based, Enterococcus faecalis; settings: E. faecalis V583 (VanB positive, glycopeptide resistant), in duplicate
In short: as §1

Row | SMILES | Minimal Inhibitory Concentration (MIC) [1] | Minimal Inhibitory Concentration (MIC) [2] | Minimal Inhibitory Concentration (MIC) [3] | Minimal Inhibitory Concentration (MIC) [4] | Minimal Inhibitory Concentration (MIC) [5] | Minimal Inhibitory Concentration (MIC) [6] | Minimal Inhibitory Concentration (MIC) [7] | Minimal Inhibitory Concentration (MIC) [8] | Minimal Inhibitory Concentration (MIC) [9] | Minimal Inhibitory Concentration (MIC) [10] | Minimal Inhibitory Concentration (MIC) [11] | Minimal Inhibitory Concentration (MIC) [12] | Minimal Inhibitory Concentration (MIC) [13] | Minimal Inhibitory Concentration (MIC) [14] | Minimal Inhibitory Concentration (MIC) [15] | antimicrobial / antibacterial activity (in words) [16] | Minimal Inhibitory Concentration (MIC) [17]
1 | CC[P+](CC)(CC)[Au-][c]1nn[nH]c1COC(=O)NC(C(=O)NC)c1ccccc1 (centres unmarked) [TMB8] | ≤0.06 | 0.25 and 0.5 | 2 | 2 | 1 and 2 | 0.25 | 1 | ≤0.06-0.125 | 0.25 | 1 and 2 | ≤0.06 | 0.125 | 0.25 and 0.5 | 0.125 | >8 | have antimicrobial activity | 2
2 | CC[P+](CC)(CC)[Au-][c]1nn[nH]c1COC(=O)NC(C(=O)OC(C)(C)C)c1ccccc1 (centres unmarked) [TMB15] | ≤0.06 | 0.25 and 0.5 | 2 | 4 | 2 | 0.25 and 0.5 | 2 | 0.125 and 0.25 | 0.5 | 2 | ≤0.06 | 0.125 and 0.25 | 0.5 | 0.125 | >8 | have antimicrobial activity | 2 and 4
3 | CC[P+](CC)(CC)[Au-][c]1nn[nH]c1COC(=O)N1CCC[C@@H]1C(=O)O [TMB28] | ≤0.06 | 0.25 and 0.5 | 0.5 | 0.5 | 0.25 | 0.125 | 0.25 | 0.125 and 0.25 | 0.25 | 0.25 | ≤0.06 | 0.125 | 0.125 | 0.125 | >8 | have antimicrobial activity | 0.25
4 | CC[P+](CC)(CC)[Au-][c]1nn[nH]c1CCC(=O)NC(C(=O)NC1C(=O)N2C1SC(C)(C)C2C(=O)O)c1ccccc1 (centres unmarked) [TMB4] | ≤0.06 | 0.125 | 0.5 | 1 | 0.5 | 0.125 | – | ≤0.06-0.125 | 0.125 | 0.5 | ≤0.06 | 0.125 | 0.125 | ≤0.06 | >8 | have antimicrobial activity | 0.5
5 | CC[P+](CC)(CC)[Au-][c]1nn[nH]c1COC(=O)N[C@@H](CCCNC(=N)N[N+](=O)[O-])C(=O)O [TMB35] | ≤0.06 | 0.25 | 1 | 1 | 0.5 | 0.125 | 1 | 0.125 | 0.25 | 1 | – | 0.125 and 0.25 | 0.25 | 0.125 | >8 | have antimicrobial activity | 1
6 | CC[P+](CC)(CC)[Au-][c]1nn[nH]c1CCC(=O)O [TMB19] | ≤0.06 | 0.125 | 0.125 | 0.25 | 0.125 and 0.25 | – | 0.125 and 0.25 | ≤0.06 | 0.125 | 0.125 and 0.25 | ≤0.06 | ≤0.06 | 0.125 and 0.25 | ≤0.06 | >8 | have antimicrobial activity | 0.125 and 0.25
7 | CC1(C)S[C@@H]2[C@H](NC(=O)[C@H](N)c3ccccc3)C(=O)N2[C@H]1C(=O)O [Ampi, ampicillin, reference compound] | – | 4 | >8 | 4 and 8 | 0.5 | – | – | 0.5 and 0.5-1 and 0.25 | 0.5 | – | >8 | 8 and 4 | – | 4 and 8 | 2 | – | 0.5
